Measurements from patent US7368126B2, “Controlled release depot formulations” (priority 2002, dated 2008).
Counter-ions that a name gives are not always drawn.

Tests used:
Solubility in water = assay type: physicochemical; conditions: DI water
[1] = cited from earlier work

concentration in deionized water at saturation (Solubility in water) [µg/mL]	SMILES	reported solubility in water [1]
40000	CCCCN1CCCCC1C(=O)Nc1c(C)cccc1C (centres unmarked) [Bupivacaine hydrochloride]	
	CC(=O)OCC(COC(C)=O)OC(C)=O [triacetin]	7.17 grams in 100 ml of water
